# Data from patent US20200376291A1, “PHOTOBIOMODULATION THERAPY TO DELAY DYSTROPHY PROGRESSION” (Multi Radiance Medical, priority 2017, published 2020).
# Tests used:
# Assay type in all cases: in vivo
# [1] = test system: mdx mice; assay: Skeletal muscle tissue morphology (histological sections, HE) in mdx mice; settings: treated for 14 weeks from 6 weeks of age, tibialis anterior muscle, FIGS. 13-17
# Method: The tibialis anterior muscles of the animal's hind paw were collected and stored in 10% buffered formalin for histological processing; then, hematoxylin and eosin staining was performed in a routine method. Slides were photographed, and the morphology of the skeletal striated muscle fibers was analyzed (Eclipse E-200; Nikon, Tokyo, Japan). Images of all groups were obtained using the 400x magnification. The images were presented with a similar photographic pattern.
# (§1) Mice were randomly divided into 7 different experimental groups: Wild Type (WT), Placebo-control (mdx mice), Prednisone (mdx mice), NSAID (mdx mice), […], and PBMT+NSAID (mdx mice). Prednisone (glucocorticoid) treatment was administered to animals daily with a dose of 1.5 mg/kg per day; NSAID treatment with ibuprofen was also administered to animals daily with a dose of 25 mg/kg per day. […]
# [2] = test system: mdx mice; assay: Functional performance assessment in mdx mice; settings: treated for 14 weeks from 6 weeks of age, FIG. 19
# Method: The PBMT was analyzed using a functional performance evaluation protocol. The functional performance evaluation protocol included the animal climbing stairs with the following dimensions (1×0.09 m, distance between the steps of 0.5 cm and)80° using the animal's body weight (the protocol began with the animal's familiarization, in two sessions with a 24-h interval between the sessions). The aim of the sessions was to teach the mouse to move up the steps and consisted of three repetitions to the top, with a 60 s interval to rest. If necessary, a clamp stimulus for the animal to start moving was applied. After this familiarization, the assessments were performed before the treatments begin and 24-h after the last treatment, in order to evaluate how many times each mouse was able to climb up the stairs until the animal came to fatigue. Fatigue was identified when the animal could no longer perform the activity.
# as §1
# [3] = test system: dystrophin; assay: Dystrophin in tibialis anterior muscle of mdx mice by immunohistochemistry; settings: treated for 14 weeks from 6 weeks of age, prednisone 1.5 mg/kg per day, ibuprofen 25 mg/kg per day, PBMT 3 times a week, FIG. 18
# Method: Mice were randomly divided into 7 different experimental groups: Wild Type (WT), Placebo-control (mdx mice), Prednisone (mdx mice), NSAID (mdx mice), […], and PBMT+NSAID (mdx mice). Prednisone (glucocorticoid) treatment was administered to animals daily with a dose of 1.5 mg/kg per day; NSAID treatment with ibuprofen was also administered to animals daily with a dose of 25 mg/kg per day. PBMT was performed employing a cluster probe (Multi Radiance Medical, Solon, Ohio) with 9 diodes (1 super-pulsed laser diode (905 nm), four LED diodes (875 nm), and 4 LED diodes (650 nm). PBMT was applied 3 times a week with direct contact to the animal's skin on hindlimb at a single point (tibialis anterior muscle—bilaterally). For combined treatments, each modality was applied as described previously. All treatments were performed during 14 weeks and started with animals at 6 weeks of age. The analysis consisted of muscle morphology, dystrophin through itntnunohistochetnistry and functional performance.
smiles,measurement,setting,value
C[C@]12C=CC(=O)C=C1CC[C@@H]1[C@@H]2C(=O)C[C@@]2(C)[C@H]1CC[C@]2(O)C(=O)CO [Prednisone],morphological aspects of skeletal muscle,[1],improvement in the morphological aspects of skeletal muscle
same,muscular function compared to the placebo-control group,[2],improved muscular function
same,dystrophin compared to the placebo-control group,[3],increased dystrophin
"CC(C)Cc1ccc(C(C)C(=O)O)cc1 (stereo not shown) [NSAID, ibuprofen]",dystrophin compared to the placebo-control group,[3],no significant increase in dystrophin
